Like-named read-outs stand apart in the source and are kept apart here.
How the values were obtained:
Assay type in all cases: cell-based, D. melanogaster
Dα3/Dβ1 nAChR = biological target: T1, Dα3/Dβ1 nAChR (Drosophila melanogaster, UniProt P04755+Q9W3G6); experiment: cell-based; details: Dα3/Dβ1 nAChR, mean ± standard error (n = 5)
T1 construct: Dβ1 (NP_523927); expressed in transfected cells; host or cells: Xenopus laevis oocytes (cRNA injection)
Protocol: (§1) cDNAs of the nAChR subunits and co-factors were cloned into pcDNA3.1 (+) vector (Thermo Fisher Scientific). The accession numbers of the nAChR subunits and cofactors are as follows: Dα1 (NP_524481), Dα2 (NP_524482), Dα3 (NP_525079), Dα4 (CAB77445), Dβ1 (NP_523927), Dβ2 (NP_524483), Dβ3 (NP_525098), DmRIC-3 (CAP16647), DmUNC-50 (NP_649813), and DmTMX3 (NP_648847). cRNAs were prepared using the mMESSAGE mMACHINE T7 ULTRA Transcription Kit (Thermo Fisher Scientific, #AM1345) according to the manual with the cDNA template which was cut with appropriate restriction enzymes at the 3’ end of the cDNA.
(§2) We minimised the use of X. laevis according to the UK Animals (Scientific Procedures) Act, 1986. […] Oocytes were defolliculated after collagenase treatment in Ca^2+-free standard oocyte saline (Ca^2+-free SOS). cRNAs of the nAChR subunits and co-factors mixed at a concentration of 0.1 mg/mL was injected into oocytes at a volume of 50 nL. Then the oocytes were incubated in the incubation medium (SOS supplemented with sodium pyruvate (Nacalai Tesque, #13058–12), penicillin-streptomycin (MilliporeSigma, #P4333), gentamycin (Nacalai Tesque, #16672–04), and 4% horse serum (Thermo Fisher Scientific, #26050–070) for 3−4 days prior to electrophysiology.
(§3) Each defolliculated X. laevis oocyte was secured in a Perspex recording chamber and perfused with the standard oocyte saline (SOS) containing 0.5 μM atropine (SOSA) at a flow rate of 7−10 mL/min [48]. Two glass electrodes filled with 2 M KCl were impaled into each oocyte and the membrane potential was clamped at -100 mV. […] The peak amplitude of the response was measured and analysed by pCLAMP (Molecular Devices, USA).
(§4) Y=Imax/1+10^(logEC50‐X)nH
(§5) Where Y is the normalised response, X is log[ligand (M)], EC50 is the half maximal concentration (M), Imax is the maximum normalised response and nH is the Hill coefficient.

Dα1/Dα2/Dβ1 nAChR = biological target: T2, Dα1/Dα2/Dβ1 nAChR (Drosophila melanogaster, UniProt P04755+P09478+P17644); experiment: Voltage-clamp electrophysiology, nAChR expressed in X. laevis oocytes
T2 construct: Dα1 (NP_524481); Dα2 (NP_524482); Dβ1 (NP_523927); expressed in transfected cells; host or cells: Xenopus laevis oocytes (cRNA injection)
Protocol: as §1, §2, §3, §4, §5

Dα3/Dβ1/Dβ2 nAChR = biological target: T3, Dα3/Dβ1/Dβ2 nAChR (Drosophila melanogaster, UniProt P04755+P25162+Q9W3G6); experiment: as above; details: Dα3/Dβ1/Dβ2 nAChR
T3 construct: Dβ1 (NP_523927); Dβ2 (NP_524483); expressed in transfected cells; host or cells: Xenopus laevis oocytes (cRNA injection)
Protocol: as §1, §2, §3, §4, §5

[1] = tested on: T4, Dα1/Dα2/Dα3/Dβ1/Dβ2 nAChR; experiment: as above; details: mean ± standard error (n = 5)
T4 construct: Dα1 (NP_524481); Dα2 (NP_524482); Dβ1 (NP_523927); Dβ2 (NP_524483); expressed in transfected cells; host or cells: Xenopus laevis oocytes (cRNA injection)
Protocol: as §1, §2, §3, §4, §5

Dα1/Dβ1/Dβ2 nAChR = biological target: T5, Dα1/Dβ1/Dβ2 nAChR (Drosophila melanogaster, UniProt P04755+P09478+P25162); experiment: as above
T5 construct: Dα1 (NP_524481); Dβ1 (NP_523927); Dβ2 (NP_524483); expressed in transfected cells; host or cells: Xenopus laevis oocytes (cRNA injection)
Protocol: as §1, §2, §3, §4, §5

Dα2/Dα3/Dβ1/Dβ2 nAChR = biological target: T6, Dα2/Dα3/Dβ1/Dβ2 nAChR (Drosophila melanogaster, UniProt P04755+P17644+P25162+Q9W3G6); experiment: as above; details: mean ± standard error (n = 5)
T6 construct: Dα2 (NP_524482); Dβ1 (NP_523927); Dβ2 (NP_524483); expressed in transfected cells; host or cells: Xenopus laevis oocytes (cRNA injection)
Protocol: as §1, §2, §3, §4, §5

Dα2/Dα3/Dβ1 nAChR = biological target: T7, Dα2/Dα3/Dβ1 nAChR (Drosophila melanogaster, UniProt P04755+P17644+Q9W3G6); experiment: as above; details: Dα2/Dα3/Dβ1 nAChR, mean ± standard error (n = 5)
T7 construct: Dα2 (NP_524482); Dβ1 (NP_523927); expressed in transfected cells; host or cells: Xenopus laevis oocytes (cRNA injection)
Protocol: as §1, §2, §3, §4, §5

Dα1/Dβ1 nAChR = biological target: T8, Dα1/Dβ1 nAChR (Drosophila melanogaster, UniProt P04755+P09478); experiment: as above; details: mean ± standard error (n = 5)
T8 construct: Dα1 (NP_524481); Dβ1 (NP_523927); expressed in transfected cells; host or cells: Xenopus laevis oocytes (cRNA injection)
Protocol: as §1, §2, §3, §4, §5

Dα1/Dα2/Dβ1/Dβ2 nAChR = biological target: T9, Dα1/Dα2/Dβ1/Dβ2 nAChR (Drosophila melanogaster, UniProt P04755+P09478+P17644+P25162); experiment: as above; details: mean ± standard error (n = 5)
T9 construct: Dα1 (NP_524481); Dα2 (NP_524482); Dβ1 (NP_523927); Dβ2 (NP_524483); expressed in transfected cells; host or cells: Xenopus laevis oocytes (cRNA injection)
Protocol: as §1, §2, §3, §4, §5

[2] = biological target: T10, Dα1/Dα2/Dβ1/Dβ2/Dβ3 nAChR; experiment: as above; details: mean ± standard error (n = 5); for Imax: normalised to maximum ACh response
T10 construct: Dα1 (NP_524481); Dα2 (NP_524482); Dβ1 (NP_523927); Dβ2 (NP_524483); expressed in transfected cells; host or cells: Xenopus laevis oocytes (cRNA injection)
Protocol: as §1, §2, §3, §4, §5

[3] = biological target: T11, Dα2/Dα3/Dβ1/Dβ2/Dβ3 nAChR; experiment: as above; details: mean ± standard error (n = 5); for Imax: normalised to maximum ACh response
T11 construct: Dα2 (NP_524482); Dβ1 (NP_523927); Dβ2 (NP_524483); expressed in transfected cells; host or cells: Xenopus laevis oocytes (cRNA injection)
Protocol: as §1, §2, §3, §4, §5

[4] = biological target: T12, Dα1/Dα3/Dβ1/Dβ2/Dβ3 nAChR; experiment: as above; details: mean ± standard error (n = 5); for Imax: normalised to maximum ACh response
T12 construct: Dα1 (NP_524481); Dβ1 (NP_523927); Dβ2 (NP_524483); expressed in transfected cells; host or cells: Xenopus laevis oocytes (cRNA injection)
Protocol: as §1, §2, §3, §4, §5

[5] = efficacy, mean ± standard error (n = 5)
[6] = normalised to maximum ACh response
[7] = mean ± standard error (n = 5), read-out: pEC50 (converted)
[8] = normalised to maximum ACh response, mean ± standard error (n = 5)

| Structure (SMILES) | Imax (Dα3/Dβ1 nAChR; efficacy) | Imax (Dα1/Dα2/Dβ1 nAChR; [5]) | Imax (Dα3/Dβ1/Dβ2 nAChR; [5]) | Imax ([1]; efficacy) | Imax (Dα1/Dβ1/Dβ2 nAChR; [5]) | Imax (Dα2/Dα3/Dβ1/Dβ2 nAChR; efficacy) | Imax (Dα2/Dα3/Dβ1 nAChR; efficacy) | Imax (Dα1/Dβ1 nAChR; efficacy) | Imax (Dα1/Dα2/Dβ1/Dβ2 nAChR; efficacy) | EC50 (Dα3/Dβ1 nAChR) [µM] | Imax (Dα3/Dβ1 nAChR; [6]) | pEC50 [2] | Imax [2] | pEC50 [3] | Imax [3] | Imax (Dα1/Dα2/Dβ1 nAChR; [8]) | Imax (Dα3/Dβ1/Dβ2 nAChR; [8]) | pEC50 [4] | Imax [4] | pEC50 [1] | other results |
| --- | --- | --- | --- | --- | --- | --- | --- | --- | --- | --- | --- | --- | --- | --- | --- | --- | --- | --- | --- | --- | --- |
| CC(=O)OCC[N+](C)(C)C [ACh, acetylcholine] | 1 | 1 | 1 | 1 | 1 | 1 | 1 | 1 | 1 | – | – | – | – | – | – | – | – | – | – | – | – |
| CN/C(=N\[N+](=O)[O-])NCc1cnc(Cl)s1 [Clothianidin, clothianidin] | 0.691 | 0.699 | 0.492 | 0.812 | 0.360 | 0.634 | 0.882 | 0.508 | 0.800 | 0.0288 | 0.691 ± 0.013 | 5.67 ± 0.11 | 0.974 ± 0.041 | 7.46 ± 0.06 | 0.695 ± 0.014 | 0.699 ± 0.034 | 0.492 ± 0.016 | 7.60 ± 0.12 | 0.531 ± 0.026 | 6.59 ± 0.07 | Imax ([2]; listed as clothianidin): 0.974; EC50 (Dα1/Dα2/Dβ1 nAChR; [7]): 8.51 µM; EC50 (Dα3/Dβ1/Dβ2 nAChR; read-out: EC50): 0.0347 µM; Imax [1, 6]: 0.812 ± 0.019; Imax ([1]; normalised to maximum ACh response, listed as clothianidin): 0.812; Imax (Dα1/Dβ1/Dβ2 nAChR; [8]): 0.360 ± 0.016; EC50 (Dα1/Dβ1/Dβ2 nAChR; read-out: EC50): 0.229 µM; EC50 (Dα2/Dα3/Dβ1/Dβ2 nAChR): 0.0513 µM; Imax (Dα2/Dα3/Dβ1/Dβ2 nAChR; [6]): 0.634 ± 0.020; EC50 (Dα2/Dα3/Dβ1 nAChR): 0.155 µM; Imax (Dα2/Dα3/Dβ1 nAChR; [6]): 0.882 ± 0.076; EC50 (Dα1/Dβ1 nAChR): 0.0741 µM; Imax (Dα1/Dβ1 nAChR; [6]): 0.508 ± 0.015; EC50 (Dα1/Dα2/Dβ1/Dβ2 nAChR): 0.49 µM; Imax (Dα1/Dα2/Dβ1/Dβ2 nAChR; [6]): 0.800 ± 0.033 |
| O=[N+]([O-])NC1=NCCN1Cc1ccc(Cl)nc1 [Imidacloprid, imidacloprid] | 0.032 | 0.031 | 0.039 | 0.142 | 0.076 | 0.125 | 0.101 | 0.122 | 0.165 | 0.00479 | 0.032 ± 0.003 | 6.27 ± 0.21 | 0.080 ± 0.007 | 7.75 ± 0.31 | 0.021 ± 0.003 | 0.031 ± 0.002 | 0.039 ± 0.002 | 7.72 ± 0.11 | 0.140 ± 0.008 | 6.47 ± 0.14 | Imax ([2]; listed as imidacloprid): 0.080; Imax ([3]; listed as imidacloprid): 0.021; EC50 (Dα1/Dα2/Dβ1 nAChR; [7]): 0.195 µM; EC50 (Dα3/Dβ1/Dβ2 nAChR; read-out: EC50): 0.00525 µM; Imax [1, 6]: 0.142 ± 0.011; Imax ([1]; normalised to maximum ACh response, listed as imidacloprid): 0.142; Imax (Dα1/Dβ1/Dβ2 nAChR; [8]): 0.076 ± 0.006; EC50 (Dα1/Dβ1/Dβ2 nAChR; read-out: EC50): 0.102 µM; EC50 (Dα2/Dα3/Dβ1/Dβ2 nAChR): 0.1 µM; Imax (Dα2/Dα3/Dβ1/Dβ2 nAChR; [6]): 0.125 ± 0.018; EC50 (Dα2/Dα3/Dβ1 nAChR): 0.132 µM; Imax (Dα2/Dα3/Dβ1 nAChR; [6]): 0.101 ± 0.016; EC50 (Dα1/Dβ1 nAChR): 0.0692 µM; Imax (Dα1/Dβ1 nAChR; [6]): 0.122 ± 0.007; EC50 (Dα1/Dα2/Dβ1/Dβ2 nAChR): 0.355 µM; Imax (Dα1/Dα2/Dβ1/Dβ2 nAChR; [6]): 0.165 ± 0.016 |
| N#C/N=C1\SCCN1Cc1ccc(Cl)nc1 [Thiacloprid, thiacloprid] | 0.016 | 0.025 | 0.022 | 0.059 | 0.043 | 0.017 | 0.045 | 0.091 | 0.074 | 0.0158 | 0.016 ± 0.001 | 7.71 ± 0.43 | 0.023 ± 0.004 | 8.31 ± 0.17 | 0.010 ± 0.001 | 0.025 ± 0.001 | 0.022 ± 0.003 | 8.63 ± 0.23 | 0.089 ± 0.009 | 7.18 ± 0.17 | Imax ([2]; listed as thiacloprid): 0.023; Imax ([3]; listed as thiacloprid): 0.010; EC50 (Dα1/Dα2/Dβ1 nAChR; read-out: EC50): 0.12 µM; EC50 (Dα3/Dβ1/Dβ2 nAChR; [7]): 0.00479 µM; Imax [1, 6]: 0.059 ± 0.006; Imax ([1]; normalised to maximum ACh response, listed as thiacloprid): 0.059; EC50 (Dα1/Dβ1/Dβ2 nAChR; [7]): 0.0138 µM; Imax (Dα1/Dβ1/Dβ2 nAChR; [8]): 0.043 ± 0.002; EC50 (Dα2/Dα3/Dβ1/Dβ2 nAChR): 0.00832 µM; Imax (Dα2/Dα3/Dβ1/Dβ2 nAChR; [6]): 0.017 ± 0.002; EC50 (Dα2/Dα3/Dβ1 nAChR): 0.12 µM; Imax (Dα2/Dα3/Dβ1 nAChR; [6]): 0.045 ± 0.006; EC50 (Dα1/Dβ1 nAChR): 0.0162 µM; Imax (Dα1/Dβ1 nAChR; [6]): 0.091 ± 0.009; EC50 (Dα1/Dα2/Dβ1/Dβ2 nAChR): 0.0794 µM; Imax (Dα1/Dα2/Dβ1/Dβ2 nAChR; [6]): 0.074 ± 0.014 |

From article PMC9934367, “Functional impact of subunit composition and compensation on Drosophila melanogaster nicotinic receptors–targets of neonicotinoids” (PLOS Genetics, 2023)
